Reference: patent publication US12606567B2, “Salts and forms of a WEE1 inhibitor” (Recurium IP Holdings, LLC, priority 2020, dated 2026)
≈ marks a conversion by molar mass, not a printed value. Structures can show the parent of a compound that is named as a salt.

Columns and labels:
Assay type in all cases: physicochemical
[1] = Solid-state stability of the forms under storage (HPLC purity, XRPD form); settings: for Form change on storage: all tested stability conditions
Protocol: It only slightly degraded at 60° C. after 2 weeks and at 80° C. after 3 days.

[2] = Hygroscopicity by DVS isotherm at 25° C. between 0% RH and 95% RH, XRPD after DVS; settings: for Water uptake (DVS): 25° C./80% RH; for Form change after DVS test (XRPD): after DVS at 25° C., 0% RH-95% RH
Protocol: DVS data was measured via a SMS (Surface Measurement Systems) DVS Intrinsic. The relative humidity at 25° C. was calibrated against the deliquescence point of LiCl, Mg(NO3)2 and KCl.

[3] = Equilibrium solubility in SGF, H2O, FaSSIF and FeSSIF, slurry at 37° C. for 24 hrs; settings: for Solubility / pH of supernatant / Form of residual solid (XRPD): 37° C., 24 hrs
Protocol: About 10-50 mg of each sample was weighed into 1.0 mL of each medium followed by slurry at 37° C. for 24 hrs. The samples were centrifuged and filtered using 0.45 μm PTFE filter. The solids were tested by XRPD and the supernatants were tested by HPLC and pH.

[4] = Thermodynamic stability compared with the amorphous freebase (TGA); settings: compared with amorphous freebase of Compound A
Protocol: The TGA curve of the amorphous freebase of Compound A indicated a substantial and gradual weight loss starting at 30° C. and continuing to 150° C. with a total of about 17% loss.
TGA data were collected using a TA Q5000/Discovery 5500 TGA from TA Instruments. DSC was performed using a TA Q2000/Discovery 2500 DSC from TA Instruments.

[5] = Initial, for the 25° C./60% RH, 40° C./75% RH and 60° C. series

Purity (area %) ([1]; 25° C./60% RH, 2 week) | Purity/Initial (%) ([1]; 25° C./60% RH, 2 week) | Purity (area %) ([1]; 25° C./60% RH, 4 week) | Purity/Initial (%) ([1]; 25° C./60% RH, 4 week) | Purity (area %) ([1]; 40° C./75% RH, 2 week) | Purity/Initial (%) ([1]; 40° C./75% RH, 2 week) | Purity (area %) ([1]; 40° C./75% RH, 4 week) | Purity/Initial (%) ([1]; 40° C./75% RH, 4 week) | Purity (area %) ([1]; 60° C., 2 week) | Purity/Initial (%) ([1]; 60° C., 2 week) | Purity (area %) ([1]; 60° C., 4 week) | Purity/Initial (%) ([1]; 60° C., 4 week) | Purity (area %) ([1]; 80° C., 1 day) | Purity/Initial (%) ([1]; 80° C., 1 day) | Purity (area %) ([1]; 80° C., 3 day) | Purity/Initial (%) ([1]; 80° C., 3 day) | Purity (area %) ([1]; 80° C., 7 day) | Purity/Initial (%) ([1]; 80° C., 7 day) | Purity (area %) [1, 5] [area %] | SMILES | Thermodynamic stability [4] | also measured
98.85 | 100.1 | 98.91 | 100.2 | 98.82 | 100.1 | 98.85 | 100.1 | 98.25 | 99.5 | 97.80 | 99.1 | 99.02 | 100.0 | 98.77 | 99.7 | 98.44 | 99.4 | 98.72 | C=CCn1c(=O)c2cnc(Nc3ccc(N4CCN(C)CC4)cc3)nc2n1-c1ccc2c(n1)[C@@](O)(CC)CC2 [Adipate salt Form A] | more thermodynamically stable than the amorphous freebase | Solid state stability ([1]; 4 weeks at 25° C./60% RH and 40° C./75% RH, 2 weeks at 60° C., 3 days at 80° C.): stable; Purity (area %) ([1]; Initial, for the 80° C. series): 99.03 area %; Degradation ([1]; after 4 weeks at 60° C.): 0.9%; Degradation ([1]; after 7 days at 80° C.): 0.6%; Form change on storage [1]: no form change; Water uptake (DVS) [2]: 2.2%; Form change after DVS test (XRPD) [2]: No form change; Solubility ([3]; FaSSIF): 30800 µg/mL; pH of supernatant ([3]; FaSSIF): 4.8; Form of residual solid (XRPD) ([3]; FeSSIF): Adipate Salt Form A; Solubility ([3]; FeSSIF): 5600 µg/mL; pH of supernatant ([3]; FeSSIF): 4.8; Form of residual solid (XRPD) ([3]; H2O): Adipate Salt Form A; Solubility ([3]; H2O): 25500 µg/mL; pH of supernatant ([3]; H2O): 4.7; Form of residual solid (XRPD) ([3]; SGF): Adipate Salt Form A; Solubility ([3]; SGF): 34100 µg/mL; pH of supernatant ([3]; SGF): 4.4; Solubility comparison ([3]; SGF, H2O, FaSSIF, FeSSIF): higher solubility than freebase Form E of Compound A
99.37 | 100.0 | 99.39 | 100.0 | 99.45 | 100.1 | 99.45 | 100.1 | 99.35 | 100.0 | 99.16 | 99.8 | 99.48 | 100.0 | 99.31 | 99.9 | 99.12 | 99.7 | 99.35 | C=CCn1c(=O)c2cnc(Nc3ccc(N4CCN(C)CC4)cc3)nc2n1-c1ccc2c(n1)[C@@](O)(CC)CC2 [Freebase Form E] | more thermodynamically stable than the amorphous freebase | Solid state stability ([1]; 4 weeks at 25° C./60% RH, 40° C./75% RH and 60° C., 7 days at 80° C.): stable; Purity (area %) ([1]; Initial, for the 80° C. series): 99.44 area %; Form change on storage [1]: no form change; Water uptake (DVS) ([2]; listed as freebase Form E of Compound A): 0.6%; Form change after DVS test (XRPD) [2]: No form change; Form of residual solid (XRPD) ([3]; FaSSIF): Freebase Form E; Solubility ([3]; FaSSIF): 1400 µg/mL (≈ 2.66 mM); pH of supernatant ([3]; FaSSIF): 6.8; Form of residual solid (XRPD) ([3]; FeSSIF): Amorphous; Solubility ([3]; FeSSIF): 2600 µg/mL (≈ 4.94 mM); pH of supernatant ([3]; FeSSIF): 5.4; Form of residual solid (XRPD) ([3]; H2O): Freebase Form E; Solubility ([3]; H2O): 99 µg/mL (≈ 0.188 mM); pH of supernatant ([3]; H2O): 8.4; Form of residual solid (XRPD) ([3]; SGF): Freebase Form E; Solubility ([3]; SGF): 9000 µg/mL (≈ 17.1 mM); pH of supernatant ([3]; SGF): 6.6
 |  |  |  |  |  |  |  |  |  |  |  |  |  |  |  |  |  |  | C=CCn1c(=O)c2cnc(Nc3ccc(N4CCN(C)CC4)cc3)nc2n1-c1ccc2c(n1)[C@@](O)(CC)CC2 [freebase Form J] | more thermodynamically stable than the amorphous freebase | 
